Results reported in US8937063B2 (Trustees of Tufts College, priority 2010, dated 2015).

How the values were obtained:
[1] = Storage stability of ARI-001 at 50° C., LC-MS; format: physicochemical; conditions: unregulated humidity
Description: ARI-001 was synthesized as described above. Purity was determined independently before use in experiments by examination via liquid chromatography-mass spectroscopy (LC-MS). A sample of material was dissolved in water/acetonitrile and injected onto a Discovery C-18 reverse phase column. The mobile phase began as 2%:98% acetonitrile:water, which was held for three minutes, after which a linear gradient was started that ran over 6 minutes, increasing the percent of acetonitrile until a final ratio of 98%:2% acetonitrile:water was reached. This final ratio was held for 3 minutes. The major peak was identified as ARI-001.
Stability was determined by storing ARI-001 under 50° C. with no specified humidity requirement. At various time points over the course of 3 months (90 days), a small sample (<5 mg) of ARI-001 was collected for analysis using LC-MS under the same conditions as used for purity determination (vide supra).

adiponectin mRNA = assay: qPCR of adipose mRNA in HF/HS hamsters; format: in vivo, hamster; conditions: ARI-001 2240 mg/kg oral 18 days; relative to mean of vehicle
Description: Hamster livers and adipose were preared in manners similar to that described for ARI-001 concentration determination. Briefly, to prepare for analysis, a sample of liver was excised from the frozen mass, weighed, and homogenized with a tissue grinder followed by sonication in buffer. The solid materials were then removed by centrifugation. The resulting lysate was used in qPCR analysis to quantify the specific mRNA measured (vide infra) using primers designed for the specific sequences of interest. All mRNA quantities were normalized to vehicle-treated animal, and mRNA levels were expressed as a fold increase or decrease relative to vehicle-treated. […] During grinding, liquid nitrogen was added to ensure the sample of adipose remained solid. The ground sample was transferred to a tared tube to weigh total sample. This ground sample was treated with buffer and prepared for qPCR to quantify specific mRNA quantities.

[2] = Multiple administration (30 days) pharmacokinetic study in wild type mice; format: in vivo, C57BL/6 mice; conditions: 996, 1493, 2240, 3360 mg/kg oral daily 30 days
Description: Wild type C57BL/6 mice were dosed with ARI-001 in solution via oral gavage daily for 30 consecutive days. Over the course of five 24-hour periods, blood was collected, and the resultant plasma was analyzed for concentrations of ARI-001. Four doses were used: 996 mg/kg, 1493 mg/kg, 2240 mg/kg, and 3360 mg/kg. […] However, these values were time-independent, as there was no trend observed between these parameters and days of administration. See FIGS. 15A-15D and FIGS. 16A-16B.

mice = assay: Doppler capillary blood flow (flush proxy) in mice; format: in vivo; conditions: Doppler capillary blood flow measurements
dogs = assay: Clinical symptoms of flushing over 28 days; format: in vivo
Description: (§1) Additionally, clinical symptoms of “flushing” were not observed over 28 days in rats or dogs.

rats = assay: Clinical symptoms of flushing over 28 days; format: in vivo
Description: as §1

[3] = test system: plasma lipids in animal models; assay: Summary of lipid efficacy studies in animal models; format: in vivo
Description: A number of pharmacokinetic, safety, and efficacy studies for ARI-001 have been completed in a variety of animals, including mice, rats, Golden Syrian hamsters, dogs, and monkeys. Overall, results from these studies have established the following.

healthy adult volunteers [4] = assay: Human clinical trial, single escalating oral doses: flushing; format: in vivo; conditions: single oral doses 500 to 6000 mg; preliminary
Description: (§2) A randomized, double-blind, placebo-controlled study is performed with sequential escalating doses by cohort with observations for 30 hours post dosing and return visit on 8th day. Study subjects are healthy male and female adult volunteers, age 18-60 years, with LDL-C>130 mg/dL and weight <85 kg. Subjects are randomly assigned to receive study drug or placebo.
(§3) Five periods of single dose escalation, with 8 subjects per cohort (6 drug: 2 placebo) involve a total 40 subjects. Appropriately blinded matching placebos are provided. Cohort 1 receives 500 mg of ARI-001 formulated as a single oral tablet, plus eleven placebo tablets; Cohort 2, 1000 mg taken as two 500 mg tablets of ARI-001, plus ten placebo tablets; Cohort 3, 2000 mg taken as four 500 mg tablets of ARI-001, plus eight placebo tablets; Cohort 4, 4000 mg taken as eight 500 mg tablets of ARI-001, plus four placebo tablets; Corhort 5, 6000 mg taken as twelve 500 mg tablets of ARI-001. Placebo-only subjects take twelve placebo tablets. Each tablet is a compressed, film-coated tablet suitable for oral administration. […]

healthy adult volunteers [5] = assay: Human clinical trial, single escalating oral doses: triglycerides; format: in vivo; conditions: preliminary, FIG. 22
Description: as §2, §3

purity remaining on storage ([1]; 65 days): 98.9%
purity remaining on storage ([1]; 90 days): 95.9%
Cmax levels and AUC as a function of days of administration [2]: time-independent
Cmax levels and total 24-hour exposure (AUC) as a function of dose [2]: dose-dependent
clinical symptoms of flushing (dogs): not observed
clinical symptoms of flushing (rats): not observed
SMILES: O=C(O)c1ccc(CCN2CCOCC2)nc1 [ARI-001]
Adipose Adiponectin mRNA per mg tissue (adiponectin mRNA): 2.00 ± 0.23 fold-change
capillary vasodilation or hyperemia (a proxy of flush) (mice): no evidence of capillary vasodilation or hyperemia
plasma lipid changes, once daily vs same total dose twice daily ([3]; in vivo): greater than or equal to the lipid altering effects observed with the same total dose of ARI-001 given twice daily
lipid altering effects of once-daily dose vs niacin ([3]; niacin at nearly 2-fold higher dose once a day): more pronounced
signs of flushing (healthy adult volunteers [4]): no patients exhibited any signs of flushing
change in triglycerides 4 hours after dosing (healthy adult volunteers [5]): dose response for triglyceride lowering
